Test [1] deals with RNA-directed RNA polymerase (Hepacivirus hominis, UniProt O39930, G152E). The test can be described thus: Inhibition of NS5B G152E mutant-mediated RNA synthesis in Hepatitis C virus as decrease in formation of full-length product after 45 mins.
For test [2], the target named is T1, RNA-directed RNA polymerase (Hepacivirus hominis, UniProt O39930). The test can be described thus: Displacement of 5 uM UTP from NS5B in Hepatitis C virus.
The target in test [3] is T1, RNA-directed RNA polymerase. The test can be described thus: Displacement of 500 uM PPi from NS5B in Hepatitis C virus.
For test [4] the target is unchanged. The test can be described thus: Displacement of 1 uM UTP from NS5B in Hepatitis C virus.
Test [5] shares this target. The test can be described thus: Displacement of 100 uM PPi from NS5B in Hepatitis C virus.
Test [6] shares this target. The test can be described thus: Displacement of 0.1 uM UTP from NS5B in Hepatitis C virus.
Test [7] deals with RNA-directed RNA polymerase (Hepacivirus hominis, UniProt O39930, P156L). The test can be described thus: Inhibition of NS5B P156L mutant-mediated RNA synthesis in Hepatitis C virus as decrease in formation of full-length product after 45 mins.
RNA-directed RNA polymerase (Hepacivirus hominis, UniProt O39930, P156L), sequence (O39930 entry or part of it P156L): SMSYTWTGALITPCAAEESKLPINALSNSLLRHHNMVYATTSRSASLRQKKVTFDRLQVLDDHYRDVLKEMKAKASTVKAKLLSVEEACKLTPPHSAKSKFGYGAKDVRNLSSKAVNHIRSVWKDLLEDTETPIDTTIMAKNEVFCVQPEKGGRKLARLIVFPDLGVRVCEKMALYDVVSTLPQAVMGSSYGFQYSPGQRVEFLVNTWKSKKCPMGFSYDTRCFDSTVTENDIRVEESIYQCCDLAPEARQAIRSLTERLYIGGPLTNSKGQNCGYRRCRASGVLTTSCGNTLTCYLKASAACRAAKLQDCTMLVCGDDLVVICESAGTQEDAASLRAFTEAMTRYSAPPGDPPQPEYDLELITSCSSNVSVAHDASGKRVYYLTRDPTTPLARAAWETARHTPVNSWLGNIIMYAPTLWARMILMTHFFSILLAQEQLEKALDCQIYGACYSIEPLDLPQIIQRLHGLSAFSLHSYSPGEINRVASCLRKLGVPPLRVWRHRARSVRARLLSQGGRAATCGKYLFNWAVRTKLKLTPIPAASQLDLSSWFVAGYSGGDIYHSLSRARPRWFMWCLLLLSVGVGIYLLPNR
Test [8] deals with T1, RNA-directed RNA polymerase. The test can be described thus: Displacement of 50 uM PPi from NS5B in Hepatitis C virus.
The target is the same in test [9]. The test can be described thus: Inhibition of NS5B-mediated RNA synthesis in Hepatitis C virus assessed as decrease in formation of full-length product after 45 mins.

T1 sequence (O39930 whole entry): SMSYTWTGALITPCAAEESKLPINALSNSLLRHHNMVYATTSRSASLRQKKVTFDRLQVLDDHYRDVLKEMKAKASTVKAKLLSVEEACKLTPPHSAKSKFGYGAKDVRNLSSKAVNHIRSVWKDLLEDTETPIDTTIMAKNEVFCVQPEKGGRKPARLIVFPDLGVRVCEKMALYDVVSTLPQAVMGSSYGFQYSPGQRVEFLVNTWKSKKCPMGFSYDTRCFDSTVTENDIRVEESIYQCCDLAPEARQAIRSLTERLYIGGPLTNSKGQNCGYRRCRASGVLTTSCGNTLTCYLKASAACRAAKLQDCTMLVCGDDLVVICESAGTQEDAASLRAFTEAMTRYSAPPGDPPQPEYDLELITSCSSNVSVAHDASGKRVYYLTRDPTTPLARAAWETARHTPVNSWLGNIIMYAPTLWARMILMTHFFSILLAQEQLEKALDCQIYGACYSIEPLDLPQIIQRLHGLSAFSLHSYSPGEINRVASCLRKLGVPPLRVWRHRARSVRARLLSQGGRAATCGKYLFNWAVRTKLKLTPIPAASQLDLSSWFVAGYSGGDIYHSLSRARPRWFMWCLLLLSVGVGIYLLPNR
RNA-directed RNA polymerase (Hepacivirus hominis, UniProt O39930, G152E), sequence (O39930 entry or part of it G152E): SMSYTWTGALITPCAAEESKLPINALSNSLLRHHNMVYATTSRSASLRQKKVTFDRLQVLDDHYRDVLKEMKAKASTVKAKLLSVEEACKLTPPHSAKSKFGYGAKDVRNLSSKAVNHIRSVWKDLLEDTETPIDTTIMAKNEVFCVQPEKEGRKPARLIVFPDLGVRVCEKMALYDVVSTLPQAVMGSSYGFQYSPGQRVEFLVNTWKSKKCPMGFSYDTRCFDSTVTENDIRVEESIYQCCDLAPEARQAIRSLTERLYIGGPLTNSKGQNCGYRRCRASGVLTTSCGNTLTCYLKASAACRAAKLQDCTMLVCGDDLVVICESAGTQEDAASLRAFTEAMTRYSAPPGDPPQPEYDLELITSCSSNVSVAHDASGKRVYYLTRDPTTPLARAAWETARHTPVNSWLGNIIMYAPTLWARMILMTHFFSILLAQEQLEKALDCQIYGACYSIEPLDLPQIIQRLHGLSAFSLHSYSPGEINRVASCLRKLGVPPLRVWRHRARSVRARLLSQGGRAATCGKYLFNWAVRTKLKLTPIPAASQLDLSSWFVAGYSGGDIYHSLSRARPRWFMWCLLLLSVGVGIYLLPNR

A word on the IC50: it is the midpoint of a concentration-inhibition curve. On to `O=C(Nc1ccsc1-c1nc(O)c(O)c(C(=O)O)n1)OCc1c(Cl)cccc1Cl`, for which the IC50 in [1] was 3780 nM; in test [2], > 1000 nM; in test [3], 882 nM; in test [4] it was > 500 nM; in test [5] it was 302 nM; in test [6], 258 nM. Moreover, the IC50 was determined as 5390 nM in test [7], 174 nM in test [8] and 730 nM in test [9].
